According to patent US7405038B1, “Stable cell lines resistant to apoptosis and nutrient stress and methods of making same” (Boyce Thompson Institute for Plant Research, Inc., priority 2000, dated 2008):
Numbered stars: 1 amine (or outer) side, 2 acyl side, 3 side chain; on linkers, the order of the positions; unused ones are H or OH. Bridge positions count the residues as written; N and C are the ends. Square brackets hold non-standard residues; d marks the D form. Peptide text beside a SMILES is read from it. I, II: the chains in the order shown. Actinocin(9to1) = Cc1c2oc3c(C)ccc(C(=O)[*:1])c3nc-2c(C(=O)[*:2])c(N)c1=O; NMeV = CN[C@H](C(=O)O)C(C)C; Sar = CNCC(=O)O

Columns and labels:
Type in all cases: cell-based, Spodoptera frugiperda
Sf9P35AcV5-1 cells = assay: Resistance to induction of apoptosis by actinomycin D: cell survival
Protocol: (§1) The cells were examined for resistance to induction of apoptosis by actinomycin D, as well as survival under conditions of nutrient deprivation. Sf9 cells or stably transfected lines Sf9^P35AcV5−1 and Sf9^P35AcV5−3 were incubated in medium containing 0.1 μg/ml actinomycin D for 1 hour, then placed in TNMFH medium.
(§2) Increasing doses of actinomycin D were tested to further examine the degree of resistance to this inducer of apoptosis. Sf9 or stably transfected cells expressing P35 were incubated in a range of concentrations of actinomycin D (0.01 to 0.5 μg/ml) for one hour, then placed in TNMFH and scored for cell survival after 1-4 days (Table 2).

Sf9 cells = assay: as above
Protocol: as §1, §2

[1] = system: surviving transfected Sf9 cells; assay: Actinomycin D selection of G418-selected transfected cells; conditions: 0.1 μg/ml actinomycin D for 1 hour, then fresh TNMFH; after three days
Protocol: In order to select cells expressing higher levels of functional P35, the surviving transfected cells were placed in medium containing 0.1 μg/ml actinomycin D for 1 hour. Another example of an inducer of apoptosis that could be used to select cells resistant to apoptosis is UV irradiation. In mammalian cells, inducers of apoptosis such as tumor necrosis factor (TNF) could also be used. The selection using an inducer of apoptosis could alternatively be performed without cotransfection with a selectable marker such as an antibiotic resistance gene.
At the end of the one hour incubation in actinomycin D, the medium was replaced with fresh TNMFH medium (containing no actinomycin D) and cells were allowed to grow for three days. After three days, 85-90% of the cells treated with actinomycin D-containing medium died. Medium was replaced after 3 days and surviving single cells formed small colonies which were subsequently propagated and used to clone individual cell lines by limiting dilution. For limiting dilution cloning, cells were diluted into 96 well plates such that each well received only one cell on average. Each well was subsequently monitored to ensure that only a single colony was present. Monoclonal cell lines were selected and propagated. Cell lines expressing the native P35 protein were named Sf9^P35, and lines expressing the epitope tagged P35 protein were named Sf9^P35AcV5. […]

[2] = 0.075 μg/ml actinomycin D for one hour, Day 3
[3] = 0.075 μg/ml actinomycin D for one hour, Day 4
[4] = 0.1 μg/ml actinomycin D for 1 hour, then TNMFH medium, after three days
[5] = 0.1 μg/ml actinomycin D for one hour, Day 1
[6] = 0.1 μg/ml actinomycin D for one hour, Day 2
[7] = 0.1 μg/ml actinomycin D for one hour, Day 3
[8] = 0.1 μg/ml actinomycin D for one hour, Day 4
[9] = 0.25 μg/ml actinomycin D for one hour, Day 1
[10] = 0.25 μg/ml actinomycin D for one hour, Day 2
[11] = 0.25 μg/ml actinomycin D for one hour, Day 3
[12] = 0.25 μg/ml actinomycin D for one hour, Day 4
[13] = 0.5 μg/ml actinomycin D for one hour, Day 1
[14] = 0.5 μg/ml actinomycin D for one hour, Day 2
[15] = 0.5 μg/ml actinomycin D for one hour, Day 3
[16] = 0.5 μg/ml actinomycin D for one hour, Day 4

Cc1c2oc3c(C)ccc(C(=O)N[C@@H]4C(=O)N[C@H](C(C)C)C(=O)N5CCC[C@H]5C(=O)N(C)CC(=O)N(C)[C@@H](C(C)C)C(=O)O[C@@H]4C)c3nc-2c(C(=O)N[C@@H]2C(=O)N[C@H](C(C)C)C(=O)N3CCC[C@H]3C(=O)N(C)CC(=O)N(C)[C@@H](C(C)C)C(=O)O[C@@H]2C)c(N)c1=O [Actinomycin D, actinomycin D] (I: T[dV]P[Sar][NMeV] / II: T[dV]P[Sar][NMeV]; ester I:1-I:C, II:1-II:C; linker I:N-II:N via Actinocin(9to1))
Sf9P35AcV5-1 Cell Survival (Percentage) (Sf9P35AcV5-1 cells; [2]): 100 Percentage
Sf9P35AcV5-1 Cell Survival (Percentage) (Sf9P35AcV5-1 cells; [3]): 100 Percentage
survival of Sf9P35AcV5-1 cells (Sf9P35AcV5-1 cells; [4]): survived
Sf9P35AcV5-1 Cell Survival (Percentage) (Sf9P35AcV5-1 cells; [5]): 100 Percentage
Sf9P35AcV5-1 Cell Survival (Percentage) (Sf9P35AcV5-1 cells; [6]): 100 Percentage
Sf9P35AcV5-1 Cell Survival (Percentage) (Sf9P35AcV5-1 cells; [7]): 100 Percentage
Sf9P35AcV5-1 Cell Survival (Percentage) (Sf9P35AcV5-1 cells; [8]): 100 Percentage
survival of stably transfected line (Sf9P35AcV5-1 cells; 0.25 μg/ml actinomycin D): 100%
Sf9P35AcV5-1 Cell Survival (Percentage) (Sf9P35AcV5-1 cells; [9]): 100 Percentage
Sf9P35AcV5-1 Cell Survival (Percentage) (Sf9P35AcV5-1 cells; [10]): 100 Percentage
Sf9P35AcV5-1 Cell Survival (Percentage) (Sf9P35AcV5-1 cells; [11]): 100 Percentage
Sf9P35AcV5-1 Cell Survival (Percentage) (Sf9P35AcV5-1 cells; [12]): 100 Percentage
survival of stably transfected line (Sf9P35AcV5-1 cells; 0.5 μg/ml actinomycin D): ≤ 10%
Sf9P35AcV5-1 Cell Survival (Percentage) (Sf9P35AcV5-1 cells; [13]): 8.5 Percentage
Sf9P35AcV5-1 Cell Survival (Percentage) (Sf9P35AcV5-1 cells; [14]): 5.7 Percentage
Sf9P35AcV5-1 Cell Survival (Percentage) (Sf9P35AcV5-1 cells; [15]): 1.5 Percentage
Sf9P35AcV5-1 Cell Survival (Percentage) (Sf9P35AcV5-1 cells; [16]): 0 Percentage
resistance to actinomycin D as an inducer of apoptosis (Sf9P35AcV5-1 cells; relative to Sf9 cells): ≥ 2 fold
Sf9 Cell Survival (Percentage) (Sf9 cells; 0.01 μg/ml actinomycin D for one hour, Day 1): 100 Percentage
Sf9 Cell Survival (Percentage) (Sf9 cells; 0.01 μg/ml actinomycin D for one hour, Day 2): 100 Percentage
Sf9 Cell Survival (Percentage) (Sf9 cells; 0.01 μg/ml actinomycin D for one hour, Day 3): 100 Percentage
Sf9 Cell Survival (Percentage) (Sf9 cells; 0.01 μg/ml actinomycin D for one hour, Day 4): 100 Percentage
Sf9 Cell Survival (Percentage) (Sf9 cells; 0.025 μg/ml actinomycin D for one hour, Day 1): 100 Percentage
Sf9 Cell Survival (Percentage) (Sf9 cells; 0.025 μg/ml actinomycin D for one hour, Day 2): 100 Percentage
Sf9 Cell Survival (Percentage) (Sf9 cells; 0.025 μg/ml actinomycin D for one hour, Day 3): 100 Percentage
Sf9 Cell Survival (Percentage) (Sf9 cells; 0.025 μg/ml actinomycin D for one hour, Day 4): 100 Percentage
Sf9 Cell Survival (Percentage) (Sf9 cells; 0.05 μg/ml actinomycin D for one hour, Day 1): 100 Percentage
Sf9 Cell Survival (Percentage) (Sf9 cells; 0.05 μg/ml actinomycin D for one hour, Day 2): 100 Percentage
Sf9 Cell Survival (Percentage) (Sf9 cells; 0.05 μg/ml actinomycin D for one hour, Day 3): 100 Percentage
Sf9 Cell Survival (Percentage) (Sf9 cells; 0.05 μg/ml actinomycin D for one hour, Day 4): 100 Percentage
survival of Sf9 cells (Sf9 cells; 0.075 μg/ml actinomycin D): 80-95%
Sf9 Cell Survival (Percentage) (Sf9 cells; 0.075 μg/ml actinomycin D for one hour, Day 1): 95 Percentage
Sf9 Cell Survival (Percentage) (Sf9 cells; 0.075 μg/ml actinomycin D for one hour, Day 2): 90 Percentage
Sf9 Cell Survival (Percentage) (Sf9 cells; [2]): 83 Percentage
Sf9 Cell Survival (Percentage) (Sf9 cells; [3]): 83 Percentage
survival of Sf9 cells (Sf9 cells; 0.1 μg/ml actinomycin D): ≤ 5%
survival of Sf9 cells (Sf9 cells; [4]): all Sf9 cells died
Sf9 Cell Survival (Percentage) (Sf9 cells; [5]): 13.7 Percentage
Sf9 Cell Survival (Percentage) (Sf9 cells; [6]): 8.6 Percentage
Sf9 Cell Survival (Percentage) (Sf9 cells; [7]): 3.7 Percentage
Sf9 Cell Survival (Percentage) (Sf9 cells; [8]): 0 Percentage
Sf9 Cell Survival (Percentage) (Sf9 cells; [9]): 4.5 Percentage
Sf9 Cell Survival (Percentage) (Sf9 cells; [10]): 3.6 Percentage
Sf9 Cell Survival (Percentage) (Sf9 cells; [11]): 0 Percentage
Sf9 Cell Survival (Percentage) (Sf9 cells; [12]): 0 Percentage
Sf9 Cell Survival (Percentage) (Sf9 cells; [13]): 0 Percentage
Sf9 Cell Survival (Percentage) (Sf9 cells; [14]): 0 Percentage
Sf9 Cell Survival (Percentage) (Sf9 cells; [15]): 0 Percentage
Sf9 Cell Survival (Percentage) (Sf9 cells; [16]): 0 Percentage
cells treated with actinomycin D-containing medium that died [1]: 85-90%
